Measurements from patent publication US9150505B2, “Prophylactic or therapeutic agent for diabetes or obesity” (AJINOMOTO CO., INC., priority 2010, dated 2015).

Target: T1, human CaSR (Homo sapiens, UniProt P41180)
T1 construct: expressed in transfected cells; host or cells: 293E cells (EBNA1-expressing HEK293, ATCC No. CRL-10852), transient transfection of hCaSR/pcDNA3.1
T1 sequence (P41180 20-1078): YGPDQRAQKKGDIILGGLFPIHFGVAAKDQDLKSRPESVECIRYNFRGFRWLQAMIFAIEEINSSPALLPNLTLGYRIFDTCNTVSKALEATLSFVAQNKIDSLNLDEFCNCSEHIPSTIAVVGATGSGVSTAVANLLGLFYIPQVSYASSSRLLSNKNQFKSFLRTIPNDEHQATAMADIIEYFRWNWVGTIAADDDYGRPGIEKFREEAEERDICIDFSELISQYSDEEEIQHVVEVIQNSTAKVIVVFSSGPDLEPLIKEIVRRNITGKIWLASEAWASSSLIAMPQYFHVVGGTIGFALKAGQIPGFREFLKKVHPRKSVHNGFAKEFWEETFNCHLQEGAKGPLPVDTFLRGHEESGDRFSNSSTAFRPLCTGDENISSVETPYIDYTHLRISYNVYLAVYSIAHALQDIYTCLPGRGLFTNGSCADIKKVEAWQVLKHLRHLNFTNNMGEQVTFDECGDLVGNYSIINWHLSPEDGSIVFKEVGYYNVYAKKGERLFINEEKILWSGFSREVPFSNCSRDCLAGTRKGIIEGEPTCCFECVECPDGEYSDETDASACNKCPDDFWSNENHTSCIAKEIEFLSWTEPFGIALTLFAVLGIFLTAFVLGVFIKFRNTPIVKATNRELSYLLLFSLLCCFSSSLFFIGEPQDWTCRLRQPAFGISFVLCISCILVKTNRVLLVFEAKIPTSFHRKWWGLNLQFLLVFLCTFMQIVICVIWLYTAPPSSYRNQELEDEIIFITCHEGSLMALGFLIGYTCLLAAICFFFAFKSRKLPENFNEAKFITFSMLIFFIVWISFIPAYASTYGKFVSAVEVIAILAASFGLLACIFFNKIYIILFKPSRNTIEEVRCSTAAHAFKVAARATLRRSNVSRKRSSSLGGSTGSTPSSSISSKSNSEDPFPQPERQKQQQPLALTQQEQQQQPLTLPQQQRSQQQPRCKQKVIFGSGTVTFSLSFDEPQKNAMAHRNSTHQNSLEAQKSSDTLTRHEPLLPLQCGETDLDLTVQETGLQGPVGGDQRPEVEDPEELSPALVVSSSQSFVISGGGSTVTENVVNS
Test: Assessment of CaSR agonistic activity (Ca2+ fluorescence, FLIPR, hCaSR-transfected 293E cells)
Assay type: cell-based
Settings: human CaSR-expressing 293E cells, 1.5 mM CaCl2 assay buffer, 3-minute change in fluorescence intensity
Description: CaSR gene was prepared according to the method described in Example 1 of WO07/55393. The resulting recombinant plasmid was used to generate human CaSR-expressing plasmid hCaSR/pcDNA3.1.
293E cells (EBNA1-expressing IIEK293 cells, ATCC No. CRL-10852) were cultured in DMEM ([…] Glucose-containing Dulbecco's modified Eagle medium, Nacalai Tesque) containing 10% bovine fetal serum in the presence of 250 μg/ml of G418. The cells were seeded on a 10 cm-diameter petri dish at 1.8×10^6 cells/15 ml, and left to stand in a CO2 incubator (5% CO2, 37° C.) for 24 hours. Thereafter, human CaSR expression plasmid hCaSR/pcDNA3.1 was transfected with transfection reagent Mirus Trans IT 293 (Takara Bio). Following static culture in a CO2 incubator for 24 hours, the cells were harvested with 10% bovine fetal serum-containing DMEM and seeded on a poly-D-lysine coat 384 well plate (Falcon) at 15,000 cells/well. Following static culture in a CO2 incubator for 24 hours, the medium was removed and the resultant was added with 50 μl/well of Ca^2+ fluorescent indicator Calcium 4 Assay Kit (Molecular Devices) dissolved in an assay buffer (146 mM NaCl, 5 mM KCl, 1 mM MgSO4, 1 mg/ml Glucose, 20 mM HEPES (PH 7.2), 1.5 mM CaCl2), and left to stand at 37° C. for an hour and then at room temperature for 30 minutes to allow intake of the indicator. The above-mentioned 384-well plate was transferred to FLIPR (Molecular Devices) and added with 12.5 μl/well of a compound dissolved in a 0.1% BSA-containing assay buffer to measure 3-minute change in the fluorescence intensity.
The difference between maximum and minimum fluorescence intensities before and after compound addition (RFU (Max−Min)) was determined by FLIPR automatic calculation. An activity rate was calculated where RFU (Max−Min) upon addition of a compound at a maximum concentration was defined 100% and RFU (Max−Min) upon addition of DMSO as a substitute for the compound at the same concentration was defined 0%. The rate was subjected to curve fitting using spreadsheet software Xfit to determine EC50 value, i.e., a compound concentration upon 50% activity rate.

Work on N[C@@H](CNC(=O)Nc1cc(Cl)cc(S(=O)(=O)O)c1O)C(=O)O [Example 6, (2S)-2-amino-3-{[(5-chloro-2-hydroxy-3-sulfophenyl)carbamoyl]amino}propanoic acid] yielded an EC50 of 3 nM.
